Data on six molecules can be found in patent publication EP3539977B1, “ENZYMES WITH CHLOROGENIC ACID ESTERASE ACTIVITY AND FERULOYL ESTERASE ACTIVITY” (SternEnzym GmbH & Co. KG, priority 2014, dated 2016).

“And” between values parts separate entries of the source, which are not always exact repeats. Equal entries are not always repeated.

Data set [1] addresses T1, UmChlE (Mycosarcoma maydis, UniProt A0A060S684, P492L).
T1 construct: purification of the chlorogenic acid esterase UmChlE from culture supernatant of U. maydis was accomplished by three complementary separation steps; made in house; host or cells: Ustilago maydis itself (native producer), culture supernatant; Q Sepharose FF, preparative IEF, polyamide column
Format: biochemical, Ustilago maydis. The conditions noted are these: 1 mM (or 1.95 mM) substrate, 1 h, 37 °C, 50 mM Tris pH 7.5; ND = activity not detectable. As to the method:
(§1) Chlorogenic acid esterase activity was determined at 37 °C in 50 mM Tris buffer at pH 7.5 using chlorogenic acid and methyl ferulate as standard substrates, unless otherwise stated. The release of the corresponding free acids was analyzed with HPLC-UV. If appropriate, the hydrolysis of other benzoic and cinnamic acid ester derivatives as well as feruloylated saccharides was measured with the same method. After incubation for one hour the reaction was terminated by doubling the reacting volume with acetonitrile. Samples were centrifuged (15 min, 15.000 × g) before injection to the HPLC (Chromolith Performance RP-18e reverse-phase column, 100 × 4.6 mm, Merck, Darmstadt, Germany). […] Substance elution was detected at 232 nm (benzoic and 3-hydroxybenzoic acid), 254 nm (4-hydroxybenzoic and vanillic acid), 275 nm (cinnamic and gallic acid), 306 nm (p-coumaric acid) and 323 nm (ferulic, caffeic, chlorogenic and sinapic acid) using a Shimadzu UV-Vis detector (SPD-10A VP, Shimadzu Deutschland GmbH, Duisburg, Germany). One unit of enzyme activity was defined as the amount of enzyme releasing one µmοl of free acid per minute under the specified conditions. All measurements were performed at least twice.
Substrate specificity of the UmChlE was determined towards different cinnamate and benzoate esters as well as natural substrates, such as F-A, F-AX and F-AXG, with activity assays as described above. Three mM stock solutions of all substrates were prepared in water.
Purified UmChlE was incubated with 1 mM, or, in a further experiment, 1.95 mM of different substrates for 1 h (at 37 °C, 50 mM Tris buffer pH 7.5). Relative enzyme activities were calculated based on the most preferred substance of the UmChIE: chlorogenic acid which was set to 100 %. Numbers in parentheses are the estimates of the standard error.

Data set [2] concerns the target T2, RsChlE (Rhizoctonia solani, UniProt A0A1D0BQV8).
T2 sequence (A0A1D0BQV8 39-563): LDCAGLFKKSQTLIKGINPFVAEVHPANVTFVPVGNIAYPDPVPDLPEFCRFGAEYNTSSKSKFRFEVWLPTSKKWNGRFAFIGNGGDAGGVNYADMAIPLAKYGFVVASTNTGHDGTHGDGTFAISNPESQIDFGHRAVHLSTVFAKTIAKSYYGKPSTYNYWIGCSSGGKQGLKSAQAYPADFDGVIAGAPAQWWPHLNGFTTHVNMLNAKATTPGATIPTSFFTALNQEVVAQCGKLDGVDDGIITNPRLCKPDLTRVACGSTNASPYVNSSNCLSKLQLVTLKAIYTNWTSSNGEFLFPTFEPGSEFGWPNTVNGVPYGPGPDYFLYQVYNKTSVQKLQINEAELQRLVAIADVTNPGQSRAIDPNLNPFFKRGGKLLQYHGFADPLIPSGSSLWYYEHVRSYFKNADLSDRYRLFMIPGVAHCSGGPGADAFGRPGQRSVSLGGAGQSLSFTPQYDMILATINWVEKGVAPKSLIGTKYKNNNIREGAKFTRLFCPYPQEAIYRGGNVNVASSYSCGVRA
As to the kind of experiment: Substrate specificity of purified RsChlE. Format: biochemical. The conditions noted are these: 1 mM (or 1.95 mM) substrate, 1 h, 30 °C, 50 mM Bis-Tris pH 6.0. As to the method: as §1
(§2) After purification of the recombinant RsChlE from the culture supernatant of Pichia pastoris with Ni-NTA, the enzyme was biochemically characterized. The experiments were performed like for UmChlE. pH and temperature optimums were analyzed. […] Table 4: Substrate specificity of purified RsChIE.
Purified RsChlE was incubated with 1 mM, or in an alternative experiment, 1.95 mM of different substrates for 1 h (at 30 °C, 50 mM Bis-Tris buffer pH 6.0). […] Numbers in parentheses are the estimates of the standard error.

The test system of data set [3] is FAE of Penicillium expansum. The following applies: literature (42); cited from earlier work.
The target in data set [4] is T1, UmChlE. Format: biochemical, Ustilago maydis. The following applies: buffer (Tris pH 7.5) / organic solvent 1:1 (v/v), 0.7 mM methyl ferulate, 1 h, 37 °C, 900 rpm; without solvent = 100 %; standard error in parentheses; ND = activity not detectable. Here is the method:
as §1, with “twice. […]” for “twice.”

Data set [5] addresses T1, UmChlE. As to the kind of experiment: Kinetic parameters of UmChlE from initial hydrolysis rates. The format is biochemical, Ustilago maydis. The following applies: 0.005 - 1 mM substrate, 60 min, 37 °C, pH 7.5. Here is the method: (§3) Km and vmax values were calculated with non-linear regression using SigmaPlot 10.0 (Systat Software Inc., Chicago, USA). Blanks were carried out for all assays using water instead of enzyme. For calculation of kcat the molecular mass was determined using denaturing SDS-PAGE.
Kinetic properties were determined from initial hydrolysis rates for the most preferred substrates chlorogenic acid, MFA and MpCA. […] Consequently, the catalytic efficiency (kca/Km), a good indicator for enzyme efficiency and specificity, was better for chlorogenic acid than for the two synthetic substrates.

In data set [6] the target is T3, chlorogenic acid hydrolases from A. niger (Aspergillus niger, UniProt A7YN26).
T3 sequence (A7YN26 19-512): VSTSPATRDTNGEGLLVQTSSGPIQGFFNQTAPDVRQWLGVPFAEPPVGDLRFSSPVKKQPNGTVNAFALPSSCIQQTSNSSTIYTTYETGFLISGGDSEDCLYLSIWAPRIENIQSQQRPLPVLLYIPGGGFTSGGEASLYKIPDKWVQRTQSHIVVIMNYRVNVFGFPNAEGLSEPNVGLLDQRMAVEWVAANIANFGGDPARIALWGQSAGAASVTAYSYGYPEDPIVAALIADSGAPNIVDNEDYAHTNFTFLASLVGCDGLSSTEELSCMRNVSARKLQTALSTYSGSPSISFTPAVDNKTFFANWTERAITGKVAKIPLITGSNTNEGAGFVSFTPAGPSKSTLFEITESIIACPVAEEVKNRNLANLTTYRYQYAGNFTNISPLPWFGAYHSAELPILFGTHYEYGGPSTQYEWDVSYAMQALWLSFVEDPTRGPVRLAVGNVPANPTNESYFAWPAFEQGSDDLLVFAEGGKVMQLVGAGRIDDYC
The following applies: literature (13, 14); cited from earlier work.

Data set [7] deals with second published chlorogenic acid hydrolases from A. niger. The following applies: literature (11); cited from earlier work.
The target in data set [8] is A. niger FAEB (Aspergillus niger, UniProt Q8WZI8). The conditions noted are these: literature (34); cited from earlier work.
Sequence of A. niger FAEB (Q8WZI8 18-521): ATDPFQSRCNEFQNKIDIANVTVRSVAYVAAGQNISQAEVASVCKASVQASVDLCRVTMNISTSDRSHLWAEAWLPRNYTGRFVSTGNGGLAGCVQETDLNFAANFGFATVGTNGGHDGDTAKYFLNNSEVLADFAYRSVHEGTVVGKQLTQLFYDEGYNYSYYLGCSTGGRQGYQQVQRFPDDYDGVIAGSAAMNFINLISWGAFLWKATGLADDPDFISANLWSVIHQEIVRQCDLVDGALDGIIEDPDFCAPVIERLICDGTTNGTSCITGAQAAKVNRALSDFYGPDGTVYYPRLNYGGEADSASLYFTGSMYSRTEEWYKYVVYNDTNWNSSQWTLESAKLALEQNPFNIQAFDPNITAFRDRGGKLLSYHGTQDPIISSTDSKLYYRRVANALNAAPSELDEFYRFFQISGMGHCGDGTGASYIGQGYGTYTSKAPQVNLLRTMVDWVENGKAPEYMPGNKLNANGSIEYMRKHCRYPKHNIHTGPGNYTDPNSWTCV
In data set [9] the target is T4, type B feruloyl esterase from N. crassa (Neurospora crassa, UniProt Q9HGR3).
T4 sequence (Q9HGR3 19-292): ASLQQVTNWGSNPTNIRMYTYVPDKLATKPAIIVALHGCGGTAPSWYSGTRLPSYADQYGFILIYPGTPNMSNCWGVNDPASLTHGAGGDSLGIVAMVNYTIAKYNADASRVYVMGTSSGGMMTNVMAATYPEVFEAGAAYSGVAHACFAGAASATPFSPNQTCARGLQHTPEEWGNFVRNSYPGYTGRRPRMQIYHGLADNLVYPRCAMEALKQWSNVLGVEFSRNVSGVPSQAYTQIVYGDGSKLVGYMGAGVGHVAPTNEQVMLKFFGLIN
The following applies: literature (35); cited from earlier work.

The target of data set [10] is T5, AoFaeB from A. oryzae (Aspergillus oryzae, UniProt Q2UP89).
T5 sequence (Q2UP89 19-540): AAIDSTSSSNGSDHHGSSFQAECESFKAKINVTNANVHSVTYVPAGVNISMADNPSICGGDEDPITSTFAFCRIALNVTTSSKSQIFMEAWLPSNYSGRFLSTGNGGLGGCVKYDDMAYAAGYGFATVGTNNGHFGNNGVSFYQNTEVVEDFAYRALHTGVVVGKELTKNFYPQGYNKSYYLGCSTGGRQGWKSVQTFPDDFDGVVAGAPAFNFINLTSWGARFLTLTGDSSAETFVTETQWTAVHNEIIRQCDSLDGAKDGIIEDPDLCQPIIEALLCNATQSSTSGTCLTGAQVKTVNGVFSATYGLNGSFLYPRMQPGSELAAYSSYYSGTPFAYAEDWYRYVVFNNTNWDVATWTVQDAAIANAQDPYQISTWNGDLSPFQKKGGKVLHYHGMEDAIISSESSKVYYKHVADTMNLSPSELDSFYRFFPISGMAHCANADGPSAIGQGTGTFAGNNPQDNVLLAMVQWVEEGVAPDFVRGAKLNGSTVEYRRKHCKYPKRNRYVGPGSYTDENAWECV
The conditions noted are these: literature (19); cited from earlier work.

Data set [11] concerns type B feruloyl esterases. The conditions noted are these: literature; cited from earlier work.
Substrate in data set [12]: COC(=O)/C=C/c1ccc(O)cc1
As to the kind of experiment: purified protein, by the assay type.

Substrate in data set [13]: COC(=O)/C=C/c1ccc(O)c(O)c1
Put plainly: Kinetic analysis of RsChlE. Format: biochemical, Rhizoctonia solani. Here is the method:
as §3, §2
(§4) In the following, the kinetic constants were determined to decide if the enzyme has mainly chlorogenic acid esterase or feruloyl esterase activity. Table 5: kinetic analysis of RsChlE

Substrate in data set [14]: COc1cc(/C=C/C(=O)OC[C@@H]2OC(O)[C@H](O[C@@H]3OC[C@@H](O)[C@H](O)[C@H]3O)[C@H]2O)ccc1O
As to the kind of experiment: Kinetic analysis of RsChlE. Format: biochemical, Rhizoctonia solani. As to the method: as §3, §2, §4

Substrate in data set [15]: O=C(/C=C/c1ccc(O)c(O)c1)O[C@@H]1C[C@](O)(C(=O)O)C[C@@H](O)[C@H]1O
As to the kind of experiment: Kinetic analysis of RsChlE. The format is biochemical, Rhizoctonia solani. Here is the method: as §3, §2, §4

Usually kcat stands for the number of substrate molecules converted per active site and unit of time at saturation. One may read the Km as the substrate concentration at which the rate is half of its maximum.

T1 sequence (A0A060S684 22-585, stated change not applied): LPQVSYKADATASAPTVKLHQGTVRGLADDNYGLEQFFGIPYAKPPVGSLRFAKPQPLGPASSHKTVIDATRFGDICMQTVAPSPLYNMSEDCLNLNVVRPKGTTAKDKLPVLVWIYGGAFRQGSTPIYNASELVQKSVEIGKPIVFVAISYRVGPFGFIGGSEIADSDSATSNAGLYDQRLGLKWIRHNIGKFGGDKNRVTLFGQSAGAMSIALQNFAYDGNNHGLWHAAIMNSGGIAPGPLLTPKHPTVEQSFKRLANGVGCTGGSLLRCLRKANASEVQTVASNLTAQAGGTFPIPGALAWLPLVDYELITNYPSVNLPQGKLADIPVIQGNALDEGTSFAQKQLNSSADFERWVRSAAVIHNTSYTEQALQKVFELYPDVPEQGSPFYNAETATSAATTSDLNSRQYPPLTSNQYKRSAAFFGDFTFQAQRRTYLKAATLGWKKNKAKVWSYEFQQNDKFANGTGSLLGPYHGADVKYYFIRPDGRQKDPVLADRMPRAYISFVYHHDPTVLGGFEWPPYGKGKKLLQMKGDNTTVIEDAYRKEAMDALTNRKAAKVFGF

For `COc1cc(/C=C/C(=O)OC[C@@H]2OC(O)[C@H](O[C@@H]3OC[C@@H](O)[C@H](O)[C@H]3O)[C@H]2O)ccc1O` (stereo partly drawn) [F-AX, β-D-xylopyranosyl-(1→2)-5-O-trans-feruloyl-L-arabinofuranose], in data set [1], the Specific esterase activity was 1.6 U mg^-1 and 1.63 U mg^-1. This molecule also came in with a Specific activity in data set [2] of 4.97 U/mg. Also, in [3], the specific activities is on record as 5.3 U mg^-1.
For the molecule `CN(C)C=O` [DMF], the Relative esterase activity in data set [4] was 1 (0.76) %.
As to `O=C(/C=C/c1ccc(O)c(O)c1)O[C@@H]1C[C@](O)(C(=O)O)C[C@@H](O)[C@H]1O` [chlorogenic acid], the Specific esterase activity in data set [1] was 2.8 U mg^-1 and 2.76 U mg^-1. Also, in data set [5], the catalytic constant (kcat) was 0.51 s⁻¹. The molecule also gave a Specific activity in data set [2] of 5.15 U/mg. In addition, the Km was 6.5 to 10 µM in [6]; 700 µM in [7]; 245 µM in data set [8]; 180 µM in data set [9]; 630 µM in data set [10].
Regarding `COC(=O)/C=C/c1ccc(O)c(OC)c1` [methyl ferulate], the Specific esterase activity in [1] is 1.27 U mg^-1. The kcat in data set [5] is 0.38 s⁻¹. In addition, the Specific activity in data set [2] is 3.19 U/mg. The specific activities in data set [3] was 14.4 U mg^-1.
With `COC(=O)/C=C/c1ccc(O)cc1` [methyl p-coumarate], the Specific esterase activity in [1] came to 1.43 U mg^-1. Moreover, the kcat in [5] stood at 0.49 s⁻¹. Besides, the Specific activity in data set [2] came to 6.19 U/mg. Besides, the Km in [11] is 20 µM.

B1: RsChlE (Rhizoctonia solani) (protein)
chain: MGCDRPRQALHSLQEFTVMFSKWLPISAILLYGASAKALDCAGLFKKSQTLIKGINPFVAEVHPANVTFVPVGNIAYPDPVPDLPEFCRFGAEYNTSSKSKFRFEVWLPTSKKWNGRFAFIGNGGDAGGVNYADMAIPLAKYGFVVASTNTGHDGTHGDGTFAISNPESQIDFGHRAVHLSTVFAKTIAKSYYGKPSTYNYWIGCSSGGKQGLKSAQAYPADFDGVIAGAPAQWWPHLNGFTTHVNMLNAKATTPGATIPTSFFTALNQEVVAQCGKLDGVDDGIITNPRLCKPDLTRVACGSTNASPYVNSSNCLSKLQLVTLKAIYTNWTSSNGEFLFPTFEPGSEFGWPNTVNGVPYGPGPDYFLYQVYNKTSVQKLQINEAELQRLVAIADVTNPGQSRAIDPNLNPFFKRGGKLLQYHGFADPLIPSGSSLWYYEHVRSYFKNADLSDRYRLFMIPGVAHCSGGPGADAFGRPGQRSVSLGGAGQSLSFTPQYDMILATINWVEKGVAPKSLIGTKYKNNNIREGAKFTRLFCPYPQEAIYRGGNVNVASSYSCGVRA
Take B1: the Km in [12] is listed as 35,8 µM; in data set [13], 28,5 µM; in data set [14], 38,4 µM; in [15], 18,3 µM. For the same molecule, the Vmax is 26,5 U/mg in data set [12], 16 U/mg in data set [13], 23,3 U/mg in [14] and 23,4 U/mg in data set [15]. Also, the kcat in data set [12] is recorded as 33,13 s^-1; in data set [13], 20,00 s^-1; in data set [14], 29,13 s^-1; in data set [15] it was 29,25 s^-1. In addition, the kcat/Km in data set [12] is 925,28 mM * s^-1.
